Key:
[1] = test system: Monochoria vaginalis; assay: Test Example 2: herbicidal activity, application during weed generation in submerged conditions; assay type: in vivo; details: Eighteenth Table; application herbicide amount 320 g/ha
Outline: (§1)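 Seeds were sown together in alluvial soil kept under 4 cm of water and grown at 25 °C to 30 °C. Once plants reached the one- to two-leaf stage, the diluted emulsion was applied to the water surface at a predetermined g/ha amount, and effects were rated 0–5 after three weeks.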

[2] = test system: Echinochloa oryzacola Vasing.; assay: as above; assay type: in vivo; details: Eighteenth Table; application herbicide amount 320 g/ha
Outline: as §1

[3] = test system: Scirpus juncoides; assay: as above; assay type: in vivo; details: Eighteenth Table; application herbicide amount 320 g/ha
Outline: as §1

| Structure (SMILES) | C (Monochoria vaginalis) herbicidal ratio grade [1] | A (Echinochloa oryzicola Vasing.) herbicidal ratio grade [2] | B (Scirpus juncoides) herbicidal ratio grade [3] | melting point [°C] |
| --- | --- | --- | --- | --- |
| CC(C)c1nnc2c(C(=S)Nc3nnnn3C)ccc(C(F)(F)F)n12 [2-039, 3-Isopropyl-N-(1-methyl-1H-tetrazol-5-yl)-5-(trifluoromethyl)-[1,2,4]triazolo[4,3-a]pyridine-8-carbothioamide] | 5 (Herbicidal ratio of 90% or more (almost completely withered)) | 5 (Herbicidal ratio of 90% or more (almost completely withered)) | 5 (Herbicidal ratio of 90% or more (almost completely withered)) | 198 to 200 |
| Cn1nnnc1NC(=O)c1ccc(C(F)(F)F)n2c(SCC3CC3)nnc12 [2-084] | 3 (Herbicidal ratio of 40% or more and less than 70%) | 4 (Herbicidal ratio of 70% or more and less than 90%) | 4 (Herbicidal ratio of 70% or more and less than 90%) |  |
| Cn1nnnc1NC(=O)c1ccc(C(F)(F)F)n2c(SCC3CCCO3)nnc12 (stereo not shown) [2-085] | 3 (Herbicidal ratio of 40% or more and less than 70%) | 4 (Herbicidal ratio of 70% or more and less than 90%) | 4 (Herbicidal ratio of 70% or more and less than 90%) |  |
| Cn1nnnc1NC(=O)c1ccc(C(F)(F)F)n2c(SCC#N)nnc12 [2-086] | 1 (Herbicidal ratio of 5% or more and less than 20%) | 0 (Herbicidal ratio of 5% or less (almost no effect)) | 2 (Herbicidal ratio of 20% or more and less than 40%) |  |
| Cn1nnnc1NC(=O)c1ccc(C(F)(F)F)n2c(SCC(F)(F)F)nnc12 [2-087] | 3 (Herbicidal ratio of 40% or more and less than 70%) | 4 (Herbicidal ratio of 70% or more and less than 90%) | 4 (Herbicidal ratio of 70% or more and less than 90%) |  |
| CCN(CC)c1nnc2c(C(=O)Nc3nnnn3C)ccc(C(F)(F)F)n12 [2-089] | 5 (Herbicidal ratio of 90% or more (almost completely withered)) | 4 (Herbicidal ratio of 70% or more and less than 90%) | 4 (Herbicidal ratio of 70% or more and less than 90%) |  |
| CCCn1nnnc1NC(=O)c1ccc(C(F)(F)F)n2c(C(C)C)nnc12 [2-090] | 4 (Herbicidal ratio of 70% or more and less than 90%) | 5 (Herbicidal ratio of 90% or more (almost completely withered)) | 5 (Herbicidal ratio of 90% or more (almost completely withered)) |  |
| C=CCn1nnnc1NC(=O)c1ccc(C(F)(F)F)n2c(C(C)C)nnc12 [2-091] | 4 (Herbicidal ratio of 70% or more and less than 90%) | 4 (Herbicidal ratio of 70% or more and less than 90%) | 5 (Herbicidal ratio of 90% or more (almost completely withered)) |  |
| CC(C)c1nnc2c(C(=O)Nc3nnnn3Cc3ccc(Cl)cc3)ccc(C(F)(F)F)n12 [2-093] | 3 (Herbicidal ratio of 40% or more and less than 70%) | 2 (Herbicidal ratio of 20% or more and less than 40%) | 4 (Herbicidal ratio of 70% or more and less than 90%) |  |
| C#CCN(C)c1nnc2c(C(=O)Nc3nnnn3C)ccc(C(F)(F)F)n12 [2-094] | 4 (Herbicidal ratio of 70% or more and less than 90%) | 5 (Herbicidal ratio of 90% or more (almost completely withered)) | 5 (Herbicidal ratio of 90% or more (almost completely withered)) |  |
| CN(CCC#N)c1nnc2c(C(=O)Nc3nnnn3C)ccc(C(F)(F)F)n12 [2-095] | 5 (Herbicidal ratio of 90% or more (almost completely withered)) | 4 (Herbicidal ratio of 70% or more and less than 90%) | 5 (Herbicidal ratio of 90% or more (almost completely withered)) |  |
| COc1ccc(N(C)c2nnc3c(C(=O)Nc4nnnn4C)ccc(C(F)(F)F)n23)cc1 [2-099] | 4 (Herbicidal ratio of 70% or more and less than 90%) | 5 (Herbicidal ratio of 90% or more (almost completely withered)) | 5 (Herbicidal ratio of 90% or more (almost completely withered)) |  |
| C=CCN(C)c1nnc2c(C(=O)Nc3nnnn3C)ccc(C(F)(F)F)n12 [2-100] | 4 (Herbicidal ratio of 70% or more and less than 90%) | 4 (Herbicidal ratio of 70% or more and less than 90%) | 3 (Herbicidal ratio of 40% or more and less than 70%) |  |
| COCCSc1nnc2c(C(=O)Nc3nnnn3C)ccc(C(F)(F)F)n12 [2-101] | 5 (Herbicidal ratio of 90% or more (almost completely withered)) | 4 (Herbicidal ratio of 70% or more and less than 90%) | 4 (Herbicidal ratio of 70% or more and less than 90%) |  |
| C=CCSc1nnc2c(C(=O)Nc3nnnn3C)ccc(C(F)(F)F)n12 [2-102] | 4 (Herbicidal ratio of 70% or more and less than 90%) | 4 (Herbicidal ratio of 70% or more and less than 90%) | 4 (Herbicidal ratio of 70% or more and less than 90%) |  |
| C#CCSc1nnc2c(C(=O)Nc3nnnn3C)ccc(C(F)(F)F)n12 [2-103] | 4 (Herbicidal ratio of 70% or more and less than 90%) | 4 (Herbicidal ratio of 70% or more and less than 90%) | 3 (Herbicidal ratio of 40% or more and less than 70%) |  |
| CC#Cc1nnc2c(C(=O)Nc3nnnn3C)ccc(C(F)(F)F)n12 [2-106] | 3 (Herbicidal ratio of 40% or more and less than 70%) | 1 (Herbicidal ratio of 5% or more and less than 20%) | 2 (Herbicidal ratio of 20% or more and less than 40%) |  |
| CC(=O)OCc1nnc2c(C(=O)Nc3nnnn3C)ccc(C(F)(F)F)n12 [2-107] | 2 (Herbicidal ratio of 20% or more and less than 40%) | 2 (Herbicidal ratio of 20% or more and less than 40%) | 1 (Herbicidal ratio of 5% or more and less than 20%) |  |
| Cn1nnnc1NC(=O)c1ccc(C(F)(F)F)n2c(C3(C)CC3(Cl)Cl)nnc12 (stereo not shown) [2-110] | 4 (Herbicidal ratio of 70% or more and less than 90%) | 5 (Herbicidal ratio of 90% or more (almost completely withered)) | 5 (Herbicidal ratio of 90% or more (almost completely withered)) |  |
| Cn1nnnc1NC(=O)c1ccc(C(F)(F)F)n2c(=O)n(C)nc12 [6-002] | 3 (Herbicidal ratio of 40% or more and less than 70%) | 3 (Herbicidal ratio of 40% or more and less than 70%) | 2 (Herbicidal ratio of 20% or more and less than 40%) |  |
| CCn1nc2c(C(=O)Nc3nnnn3C)ccc(C(F)(F)F)n2c1=O [6-004] | 2 (Herbicidal ratio of 20% or more and less than 40%) | 3 (Herbicidal ratio of 40% or more and less than 70%) | 0 (Herbicidal ratio of 5% or less (almost no effect)) |  |
| CC(C)c1nc2c(C(=O)Nc3nnnn3C)ccc(C(F)(F)F)n2n1 [7-002] | 2 (Herbicidal ratio of 20% or more and less than 40%) | 4 (Herbicidal ratio of 70% or more and less than 90%) | 2 (Herbicidal ratio of 20% or more and less than 40%) |  |

— patent US9708314B2, “Heterocyclic amide compound” (NISSAN CHEMICAL INDUSTRIES, LTD., priority 2013, dated 2017)
